Patent US20210000778A1

Key:
22RV1 = assay: In vitro killing of prostate cancer cell lines, CellTiter 96 cell survival; assay type: cell-based; settings: Homo sapiens, 60 hrs in RPMI with 10% FBS
Protocol: (§1) Cell survival was assayed with CellTiter 96® Aqueous One Solution Cell Proliferation Assay (Promega). EC50 values were calculated.

DU 145 = assay: as above; assay type: cell-based; settings: Homo sapiens, 60 hrs in RPMI with 10% FBS
Protocol: as §1

LnCap = assay: as above; assay type: cell-based; settings: Homo sapiens, 60 hrs in RPMI with 10% FBS
Protocol: as §1

PC-3 = assay: as above; assay type: cell-based; settings: Homo sapiens, 60 hrs in RPMI with 10% FBS
Protocol: as §1

RWPI-1 = assay: as above; assay type: cell-based; settings: 60 hrs in RPMI with 10% FBS
Protocol: as §1

[1] = tested on: androgen-resistance prostate PC-3 cancer cells; assay: PC-3 flank model of androgen-resistant prostate cancer; assay type: in vivo; settings: 2.5 mg/kg or 10 mg/kg, 2-3 times per week for five weeks
Human H460 NSCLC cells = assay: Oral efficacy in human non-small cell lung cancer xenografts; assay type: in vivo, CD1-Nu/Nu female mice; settings: H460 xenograft; oral 100 mg/kg on day 8, 15, 22, 29; vs 5% dextrose or untreated
Protocol: Human H460 NSCLC cells were obtained from American Type Cell Culture (ATCC) (catalog no. HTB-177, Manassas, Va.). These cells tested negative for viral contamination using the Mouse Antibody Production (MAP) test, performed by Charles River Labs Molecular Division, upon the receipt of the tumor cells from ATCC. The tumor cells were maintained at 37° C. in a humidified 5% CO2 atmosphere in T225 tissue culture flasks containing 50 mL of Roswell Park Memorial Institute (RPMI)-1640 solution with 10% Fetal Bovine Serum (FBS) and 2 mM L-glutamine. Cells were split at a ratio of 1:10 every 2-3 days by trypsinization and resuspended in fresh medium in a new flask. Cells were harvested for experiments in the same way at 70-90% confluency.
CD1-Nu/Nu female mice, ˜4-6 weeks old were obtained from Charles River Laboratories. Mice were housed 5 to a cage in a micro-isolator room in the Department of Animal Laboratory Research of New York State University (SUNY) at Stony Brook. Light-dark cycles were 12 h each daily, with light from 7 a.m. to 7 p.m. […]
An acclimation period of 7 days was allowed between the arrival of the animal at the study site before tumor inoculation and experimentation. […] Tumor dimensions (length and width) were measured daily before, during and after treatment (using Vernier calipers) and the tumor volume was calculated using the prolate ellipsoid formula: (length× width^2)/2. […]

[2] = tested on: BxPC3 pancreatic cancer cells; assay: Oral efficacy in human pancreatic cancer xenografts; assay type: in vivo, CD-1 nude mice; settings: BxPC-3 xenograft; oral dose of 100 mg/week for 4 weeks; vs 5% dextrose or untreated
Protocol: An acclimation period of 7 days was allowed between the arrival of the animal at the study site before tumor inoculation and experimentation. Mice were inoculated subcutaneously (SC) in the right flank with 2×10^6 human H460 NSCLC or BxPC3 pancreatic cancer cells that were suspended in 0.1 mL of Dulbeco's Phosphate Buffered Salt (PBS) solution using a 1 cc syringe with a 27-5/8 gauge needle. Tumor dimensions (length and width) were measured daily before, during and after treatment (using Vernier calipers) and the tumor volume was calculated using the prolate ellipsoid formula: (length× width^2)/2. Treatment with test or control articles began 8 days post tumor cell implantation when the tumor was approximately 300 mm^3.
A similar study was conducted in CD-1 nude mice (n=9) inoculated with 2×10^6 BxPC-3 cells. The study was initiated when tumors reached an average size of 150 mm^3 (day 0) and CPI-613 was administered at an oral dose of 100 mg/week for 4 weeks. A comparator arm (n=9) was conducted with IP treatment at a weekly dose of 25 mg/kg.

[3] = Pardee et al., Clin Cancer Res. 2014; cited from earlier work

Compound: O=C(O)CCCCC(CCSCc1ccccc1)SCc1ccccc1 (centres unmarked)
- EC50 (22RV1): 175 µM
- EC50 (DU 145): 99 µM
- EC50 (LnCap): 114 µM
- EC50 (PC-3): 202 µM
- EC50 (RWPI-1): 147 µM
- Toxicity [1]: without toxicity
- Survival of the mice ([1]; vs saline control): increased survival
- Tumor growth (tumor volume over time) ([1]; vs saline control): significantly slower
- Tumor growth (Human H460 NSCLC cells): grew much more slowly
- Tumor growth [2]: especially pronounced
- half-life after IV dosing [3]: 1 to 2 h
